Tests used:
[1] = Determination of the hygroscopicity (water absorption in artificial climate chamber); assay type: physicochemical; settings: for Water absorption, %: open weighing bottle, 25±1° C., relative humidity 43.5±2%; for water content: open container, 25° C., relative humidity 43.5%, 3 hours
Description: 1. Take a dry stuffed glass weighing bottle (outer diameter 50 mm, height 15 mm) in the artificial climate chamber (set temperature is 25±1° C., relative humidity is 43.5±2%) and weight it (m1).
2. Take the appropriate amount of the crystalline form in the present invention, and place it in the abovementioned weighing bottle and lay it inside the weighing bottle. The thickness of the test sample is generally about 1 mm. Weight the sample (m2).
3. Uncover the weighing bottle and place it with the bottle cap under constant temperature and humidity (set temperature is 25±1° C., relative humidity is 43.5±2%).
4. Put the cap back on the weighing bottle before weighing, and then weight it (m3). The water absorption percentage for each time point is calculated by the formula=(m3−m2)/(m2−m1)×100%.

[2] = free acid; background statement; cited from earlier work
[3] = target: T1, AT1 receptor (Homo sapiens, UniProt P30556); settings: AT1 versus AT2 receptor; background statement; cited from earlier work
T1 sequence (P30556 1-359): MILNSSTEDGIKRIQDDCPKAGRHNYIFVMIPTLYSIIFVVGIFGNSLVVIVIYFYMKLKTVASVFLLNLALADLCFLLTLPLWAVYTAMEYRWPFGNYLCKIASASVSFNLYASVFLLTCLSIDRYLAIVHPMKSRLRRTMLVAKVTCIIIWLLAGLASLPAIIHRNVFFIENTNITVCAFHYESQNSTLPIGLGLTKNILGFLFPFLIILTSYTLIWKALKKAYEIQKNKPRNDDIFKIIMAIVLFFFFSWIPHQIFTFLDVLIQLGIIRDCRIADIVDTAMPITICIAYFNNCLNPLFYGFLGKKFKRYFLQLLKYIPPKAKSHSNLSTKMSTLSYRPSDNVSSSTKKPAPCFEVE

Compound | Water absorption, % ([1]; 1.5 h) | Water absorption, % ([1]; 3 h) | other results
CCOC(=O)[C@H](C)C[C@@H](Cc1ccc(-c2ccccc2)cc1)NC(=O)CCC(=O)[O-].[Na+] [A] | 0.6% | 1.4% | water content ([1]; listed as crystalline form A): 1.4%
CCOC(=O)[C@H](C)C[C@@H](Cc1ccc(-c2ccccc2)cc1)NC(=O)CCC(=O)[O-].[Na+] [B] | 0.5% | 1.0% | –
CCOC(=O)[C@H](C)C[C@@H](Cc1ccc(-c2ccccc2)cc1)NC(=O)CCC(=O)[O-].[Na+] [C] | 1.2% | 2.4% | water content ([1]; listed as crystalline form C): 2.4%
CCOC(=O)[C@H](C)C[C@@H](Cc1ccc(-c2ccccc2)cc1)NC(=O)CCC(=O)O [sacubitril, 4-{[(2S,4R)-1-([1,1′-biphenyl]-4-yl)-5-ethoxy-4-methyl-5-oxopentan-2-yl]amino}-4-oxobutanoic acid] | – | – | water solubility (in words) [2]: poor water solubility
AngII | – | – | affinity for the AT1 receptor relative to the AT2 receptor [3]: 300 times

Now from value to compound, other results behind:

Water absorption, % ([1]; 1.5 h) | Water absorption, % ([1]; 3 h) | Compound | other results
1.5% | 3.2% | CCOC(=O)[C@H](C)C[C@@H](Cc1ccc(-c2ccccc2)cc1)NC(=O)CCC(=O)[O-].[Na+] [D] | –
2.4% | 4.3% | CCOC(=O)[C@H](C)C[C@@H](Cc1ccc(-c2ccccc2)cc1)NC(=O)CCC(=O)[O-].[Na+] [E] | –
8.3% | 11.0% | CCOC(=O)[C@H](C)C[C@@H](Cc1ccc(-c2ccccc2)cc1)NC(=O)CCC(=O)[O-].[Na+] [sacubitril sodium salt X, reference compound] | hygroscopicity (in words) ([1]; solid form, no conditions stated): great hygroscopicity

Source: patent US10683260B2, “Crystalline form of sacubitril sodium salt” (NORATECH PHARMACEUTICALS, INC., priority 2016, dated 2020)
